Measured values from ChEMBL document CHEMBL1156052, “Discovery of 1-[4-(3-chlorophenylamino)-1-methyl-1H-pyrrolo[3,2-c]pyridin-7-yl]-1-morpholin-4-ylmethanone (GSK554418A), a brain penetrant 5-azaindole CB2 agonist for the treatment of chronic pain” (J Med Chem, 2009).
Activity calls are given as the source filed them. No cut-off for these calls is given here.

Columns and labels:
[1] = Binding affinity to GABA receptor at 1 uM
[2] = Drug level in Sprague-Dawley rat blood at 2 mg/kg, po after 0.8 hrs; type: ADME, organism-based; parameters: dose 2 mg/kg, route oral; conditions: read-out: Drug uptake
[3] = Drug level in rat blood at 130 mg/kg, po after 1 hr; type: ADME, organism-based; parameters: dose 130 mg/kg, route oral; conditions: read-out: Drug uptake
[4] = Binding affinity to central benzodiazepine receptor at 1 uM
[5] = Binding affinity to adrenergic alpha1 receptor at 1 uM
Cannabinoid receptor 2 [6] = biological target: T1, Cannabinoid receptor 2 (Homo sapiens, UniProt P34972); assay: Agonist activity at human recombinant cannabinoid CB2 receptor expressed in MMY23 Saccharomyces cerevisiae assessed as degradation of FDGlu to fluorescein after 24 hrs by spectrofluorimetry; type: functional
T1 sequence (P34972 whole entry): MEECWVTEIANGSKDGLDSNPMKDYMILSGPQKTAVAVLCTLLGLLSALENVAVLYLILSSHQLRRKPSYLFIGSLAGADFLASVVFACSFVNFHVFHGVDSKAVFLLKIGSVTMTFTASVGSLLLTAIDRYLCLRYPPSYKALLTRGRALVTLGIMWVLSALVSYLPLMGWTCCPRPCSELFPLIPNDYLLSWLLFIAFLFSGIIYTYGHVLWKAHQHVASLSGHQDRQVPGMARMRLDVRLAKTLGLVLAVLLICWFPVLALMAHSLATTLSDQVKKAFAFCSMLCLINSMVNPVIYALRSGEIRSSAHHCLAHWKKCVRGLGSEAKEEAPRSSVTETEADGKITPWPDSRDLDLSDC

[7] = biological target: 5-hydroxytryptamine receptor 5A (Homo sapiens) (UniProt P47898); assay: Binding affinity to 5HT5A receptor at 1 uM
[8] = Drug level in rat blood at 130 mg/kg, po after 3 hrs; type: ADME, organism-based; parameters: dose 130 mg/kg, route oral; conditions: read-out: Drug uptake
[9] = biological target: C-X-C chemokine receptor type 2 (Homo sapiens) (UniProt P25025); assay: Binding affinity to human CXCR2 receptor at 1 uM
C-X-C chemokine receptor type 2 (Homo sapiens), sequence (P25025 whole entry): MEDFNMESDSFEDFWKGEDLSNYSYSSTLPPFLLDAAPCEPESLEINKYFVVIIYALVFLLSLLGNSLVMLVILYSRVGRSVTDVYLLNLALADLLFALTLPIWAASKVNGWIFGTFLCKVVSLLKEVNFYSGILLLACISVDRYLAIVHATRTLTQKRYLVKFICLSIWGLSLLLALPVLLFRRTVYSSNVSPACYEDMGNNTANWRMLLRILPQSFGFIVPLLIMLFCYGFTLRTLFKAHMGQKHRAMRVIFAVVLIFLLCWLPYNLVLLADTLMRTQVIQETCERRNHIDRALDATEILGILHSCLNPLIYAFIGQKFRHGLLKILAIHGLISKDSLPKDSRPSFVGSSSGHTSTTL

[10] = biological target: Kappa-type opioid receptor (Homo sapiens) (UniProt P41145); assay: Binding affinity to kappa opioid receptor at 1 uM
Cannabinoid receptor 2 [11] = biological target: T1, Cannabinoid receptor 2; assay: Agonist activity at human recombinant cannabinoid CB2 receptor expressed in CHOK1 cells assessed as forskolin-induced cAMP production by luciferase assay; type: functional, cell-based, CHO-K1
[12] = biological target: Cholecystokinin receptor type A (Homo sapiens) (UniProt P32238); assay: Binding affinity to human CCKA receptor at 1 uM
Cholecystokinin receptor type A (Homo sapiens), sequence (P32238 whole entry): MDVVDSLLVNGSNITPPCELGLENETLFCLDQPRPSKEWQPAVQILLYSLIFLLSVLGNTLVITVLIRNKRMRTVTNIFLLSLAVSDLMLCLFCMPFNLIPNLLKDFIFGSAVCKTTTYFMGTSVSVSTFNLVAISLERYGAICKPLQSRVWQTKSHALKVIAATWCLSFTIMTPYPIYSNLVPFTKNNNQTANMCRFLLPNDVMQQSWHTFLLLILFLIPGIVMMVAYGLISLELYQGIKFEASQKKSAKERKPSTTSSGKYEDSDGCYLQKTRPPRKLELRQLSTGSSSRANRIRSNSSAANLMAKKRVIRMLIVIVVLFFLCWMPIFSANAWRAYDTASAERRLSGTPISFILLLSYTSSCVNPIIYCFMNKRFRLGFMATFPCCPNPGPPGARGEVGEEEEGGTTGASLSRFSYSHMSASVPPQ

[13] = biological target: Muscarinic acetylcholine receptor M3 (Homo sapiens) (UniProt P20309); assay: Binding affinity to human muscarinic M3 receptor at 1 uM
Cannabinoid receptor 1 [14] = biological target: T2, Cannabinoid receptor 1 (Homo sapiens, UniProt P21554); assay: Agonist activity at human recombinant cannabinoid CB1 receptor expressed in MMY23 Saccharomyces cerevisiae assessed as degradation of FDGlu to fluorescein after 24 hrs by spectrofluorimetry; type: functional
T2 sequence (P21554 whole entry): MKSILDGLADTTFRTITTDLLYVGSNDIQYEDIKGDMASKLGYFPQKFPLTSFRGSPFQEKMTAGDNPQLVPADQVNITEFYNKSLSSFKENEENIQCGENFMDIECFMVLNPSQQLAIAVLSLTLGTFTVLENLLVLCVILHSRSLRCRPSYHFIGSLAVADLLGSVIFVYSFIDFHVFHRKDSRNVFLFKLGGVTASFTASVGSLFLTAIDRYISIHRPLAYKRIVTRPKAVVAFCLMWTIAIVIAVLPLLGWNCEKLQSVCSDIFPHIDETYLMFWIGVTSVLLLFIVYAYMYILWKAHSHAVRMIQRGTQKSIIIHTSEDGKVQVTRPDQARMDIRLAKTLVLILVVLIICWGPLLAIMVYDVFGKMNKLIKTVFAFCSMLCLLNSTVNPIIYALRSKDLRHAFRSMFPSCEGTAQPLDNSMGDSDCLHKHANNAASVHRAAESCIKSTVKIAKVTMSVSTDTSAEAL

[15] = Intrinsic clearance in rat liver microsomes; type: ADME, Microsome
[16] = biological target: Endothelin-1 receptor (Homo sapiens) (UniProt P25101); assay: Binding affinity to human ETA receptor at 1 uM
Endothelin-1 receptor (Homo sapiens), sequence (P25101 whole entry): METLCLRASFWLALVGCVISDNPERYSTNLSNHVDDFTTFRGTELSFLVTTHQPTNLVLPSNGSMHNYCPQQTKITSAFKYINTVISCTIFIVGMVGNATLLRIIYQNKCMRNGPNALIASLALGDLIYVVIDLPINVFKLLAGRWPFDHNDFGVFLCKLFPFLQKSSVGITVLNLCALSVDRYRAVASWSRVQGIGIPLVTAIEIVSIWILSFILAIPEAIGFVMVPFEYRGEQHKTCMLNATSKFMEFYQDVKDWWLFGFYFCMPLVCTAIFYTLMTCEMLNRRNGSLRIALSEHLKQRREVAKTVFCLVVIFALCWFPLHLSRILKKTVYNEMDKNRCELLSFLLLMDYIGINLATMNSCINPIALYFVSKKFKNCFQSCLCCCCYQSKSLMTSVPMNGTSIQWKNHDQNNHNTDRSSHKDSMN

[17] = Drug level in rat blood at 130 mg/kg, po after 5 hrs; type: ADME, organism-based; parameters: dose 130 mg/kg, route oral; conditions: read-out: Drug uptake
[18] = biological target: Melatonin receptor type 1A (Homo sapiens) (UniProt P48039); assay: Binding affinity to human ML1 receptor at 1 uM
Rattus norvegicus [19] = assay: Antihyperalgesic activity in complete Freund's adjuvant rat model of inflammatory pain assessed as reversal of hyperalgesia at 1 mg/kg, po administered as single dose in presence of 15 mg/kg, ip cannabinoid CB2 receptor antagonsit AM630; type: functional, organism-based
Rattus norvegicus [20] = assay: Induction of hypothermia in rat at 130 mg/kg, po after 1 to 5 hrs; type: organism-based; parameters: dose 130 mg/kg, route oral; conditions: in vivo
[21] = Drug level in blood of complete Freund's adjuvant rat model of inflammatory pain at 0.1 mg/kg, po administered as single dose measured after 1 hr; type: ADME, organism-based; parameters: dose 0.1 mg/kg, route oral; conditions: read-out: Drug uptake
Cytochrome P450 2C9 = Cytochrome P450 2C9 (Homo sapiens, UniProt P11712); assay: Inhibition of CYP2C9; type: ADME
Homo sapiens = species on record: Homo sapiens; assay: Selectivity ratio of EC50 for human recombinant cannabinoid CB1 receptor to EC50 for human recombinant cannabinoid CB2 receptor
[22] = biological target: 5-hydroxytryptamine receptor 1A (Homo sapiens) (UniProt P08908); assay: Binding affinity to 5HT1A receptor at 1 uM
5-hydroxytryptamine receptor 1A (Homo sapiens), sequence (P08908 whole entry): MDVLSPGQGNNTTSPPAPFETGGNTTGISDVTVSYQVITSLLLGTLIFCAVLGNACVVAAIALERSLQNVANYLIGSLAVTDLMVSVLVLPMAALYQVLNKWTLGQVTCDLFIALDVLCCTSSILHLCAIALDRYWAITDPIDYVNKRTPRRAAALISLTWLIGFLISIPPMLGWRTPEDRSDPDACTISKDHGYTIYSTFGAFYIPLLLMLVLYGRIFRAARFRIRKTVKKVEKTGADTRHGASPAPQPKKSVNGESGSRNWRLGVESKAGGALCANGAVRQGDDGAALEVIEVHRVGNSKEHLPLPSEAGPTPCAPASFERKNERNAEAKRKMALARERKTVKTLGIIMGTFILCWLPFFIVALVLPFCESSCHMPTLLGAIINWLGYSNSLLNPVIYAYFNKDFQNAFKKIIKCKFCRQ

[23] = biological target: Muscarinic acetylcholine receptor M2 (Homo sapiens) (UniProt P08172); assay: Binding affinity to human muscarinic M2 receptor at 1 uM
[24] = biological target: D(2) dopamine receptor (Homo sapiens) (UniProt P14416); assay: Binding affinity to human dopamine D2S receptor at 1 uM
Rattus norvegicus [25] = assay: Antihyperalgesic activity in po dosed complete Freund's adjuvant rat model of inflammatory pain assessed as reduction of hypersensitivity administered as single dose; type: functional
[26] = biological target: Adenosine receptor A3 (Homo sapiens) (UniProt P0DMS8); assay: Binding affinity to human adenosine A3 receptor at 1 uM
Rattus norvegicus [27] = assay: Analgesic activity in po dosed rat joint model of chronic pain assessed as minimum effective dose administered BID for 5 days; type: functional; conditions: 120 h, read-out: MED
[28] = Ratio of drug level in brain to blood in rat 130 mg/kg, po after 1 hr; type: ADME, organism-based; parameters: dose 130 mg/kg, route oral
Cannabinoid receptor 2 [29] = biological target: T1, Cannabinoid receptor 2; assay: Agonist activity at human recombinant cannabinoid CB2 receptor expressed in MMY23 Saccharomyces cerevisiae assessed as degradation of FDGlu to fluorescein after 24 hrs by spectrofluorimetry relative to HU210; type: functional
[30] = biological target: Type-1 angiotensin II receptor (Homo sapiens) (UniProt P30556); assay: Binding affinity to human AT1 receptor at 1 uM
Type-1 angiotensin II receptor (Homo sapiens), sequence (P30556 whole entry): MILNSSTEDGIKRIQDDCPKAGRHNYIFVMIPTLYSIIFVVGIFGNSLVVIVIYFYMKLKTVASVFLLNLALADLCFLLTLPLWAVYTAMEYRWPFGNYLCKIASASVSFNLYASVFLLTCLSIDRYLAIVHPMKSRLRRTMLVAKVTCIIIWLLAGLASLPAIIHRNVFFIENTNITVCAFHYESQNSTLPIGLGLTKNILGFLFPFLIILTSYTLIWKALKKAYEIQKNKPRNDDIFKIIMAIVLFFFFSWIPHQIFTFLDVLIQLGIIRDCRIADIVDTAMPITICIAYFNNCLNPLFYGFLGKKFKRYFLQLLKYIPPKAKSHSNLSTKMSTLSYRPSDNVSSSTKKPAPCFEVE

[31] = biological target: Melanocortin receptor 4 (Homo sapiens) (UniProt P32245); assay: Binding affinity to human MC4 receptor at 1 uM
Rattus norvegicus [32] = assay: Analgesic activity in rat joint model of chronic pain assessed as reversal of hypersensitivity at 10 mg/kg, po BID for 5 days; type: functional, organism-based; parameters: dose 10 mg/kg
Cytochrome P450 3A4 = Cytochrome P450 3A4 (Homo sapiens, UniProt P08684); assay: Inhibition of CYP3A4; type: ADME
[33] = Efflux ratio of apparent permeability […] side of MDR1-expressing MDCK2 cells after 60 mins by liquid scintillation counting; type: ADME, cell-based, Canis lupus familiaris; conditions: dog, mdck-ii, 1 h
[34] = Ratio of drug level in brain to blood in Sprague-Dawley rat at 0.4 mg/kg/hr, iv up to 12 hrs; type: ADME, organism-based; parameters: route intravenous
[35] = biological target: Muscarinic acetylcholine receptor M1 (Homo sapiens) (UniProt P11229); assay: Binding affinity to human muscarinic M1 receptor at 1 uM
Muscarinic acetylcholine receptor M1 (Homo sapiens), sequence (P11229 whole entry): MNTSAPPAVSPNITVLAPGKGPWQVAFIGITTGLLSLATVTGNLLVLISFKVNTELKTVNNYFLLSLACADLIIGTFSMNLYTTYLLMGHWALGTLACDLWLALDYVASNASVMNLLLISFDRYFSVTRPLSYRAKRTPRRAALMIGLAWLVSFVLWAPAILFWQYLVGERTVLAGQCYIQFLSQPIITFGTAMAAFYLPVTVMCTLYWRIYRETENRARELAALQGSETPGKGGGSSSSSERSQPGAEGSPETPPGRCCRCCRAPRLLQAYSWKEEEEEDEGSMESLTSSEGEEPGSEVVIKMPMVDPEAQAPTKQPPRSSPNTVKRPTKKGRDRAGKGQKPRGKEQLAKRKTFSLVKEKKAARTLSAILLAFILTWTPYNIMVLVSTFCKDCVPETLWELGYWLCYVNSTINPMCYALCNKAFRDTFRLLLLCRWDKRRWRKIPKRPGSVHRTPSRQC

Cannabinoid receptor 1 [36] = biological target: T2, Cannabinoid receptor 1; assay: Agonist activity at human recombinant cannabinoid CB1 receptor expressed in MMY23 Saccharomyces cerevisiae assessed as degradation of FDGlu to fluorescein after 24 hrs by spectrofluorimetry relative to HU210; type: functional
[37] = biological target: D(1A) dopamine receptor (Homo sapiens) (UniProt P21728); assay: Binding affinity to human dopamine D1 receptor at 1 uM
[38] = biological target: Sodium-dependent noradrenaline transporter (Homo sapiens) (UniProt P23975); assay: Binding affinity to NET at 1 uM
Sodium-dependent noradrenaline transporter (Homo sapiens), sequence (P23975 whole entry): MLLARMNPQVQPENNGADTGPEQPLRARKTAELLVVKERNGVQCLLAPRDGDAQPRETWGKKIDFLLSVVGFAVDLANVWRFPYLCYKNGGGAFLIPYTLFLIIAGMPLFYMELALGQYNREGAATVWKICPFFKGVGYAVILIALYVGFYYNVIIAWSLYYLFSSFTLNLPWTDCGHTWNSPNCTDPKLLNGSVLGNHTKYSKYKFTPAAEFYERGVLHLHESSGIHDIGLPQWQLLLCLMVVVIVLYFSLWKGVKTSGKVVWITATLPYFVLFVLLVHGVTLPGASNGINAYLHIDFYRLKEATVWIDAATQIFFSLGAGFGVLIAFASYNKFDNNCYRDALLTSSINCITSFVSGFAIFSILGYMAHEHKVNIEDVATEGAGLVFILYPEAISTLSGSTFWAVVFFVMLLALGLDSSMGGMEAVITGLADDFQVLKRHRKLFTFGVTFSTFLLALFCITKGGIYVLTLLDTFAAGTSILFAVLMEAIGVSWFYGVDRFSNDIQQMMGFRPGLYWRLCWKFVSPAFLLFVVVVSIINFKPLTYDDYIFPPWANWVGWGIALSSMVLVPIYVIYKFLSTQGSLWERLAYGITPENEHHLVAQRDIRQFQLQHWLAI

[39] = biological target: B2 bradykinin receptor (Homo sapiens) (UniProt P30411); assay: Binding affinity to human bradykinin B2 receptor at 1 uM
B2 bradykinin receptor (Homo sapiens), sequence (P30411 whole entry): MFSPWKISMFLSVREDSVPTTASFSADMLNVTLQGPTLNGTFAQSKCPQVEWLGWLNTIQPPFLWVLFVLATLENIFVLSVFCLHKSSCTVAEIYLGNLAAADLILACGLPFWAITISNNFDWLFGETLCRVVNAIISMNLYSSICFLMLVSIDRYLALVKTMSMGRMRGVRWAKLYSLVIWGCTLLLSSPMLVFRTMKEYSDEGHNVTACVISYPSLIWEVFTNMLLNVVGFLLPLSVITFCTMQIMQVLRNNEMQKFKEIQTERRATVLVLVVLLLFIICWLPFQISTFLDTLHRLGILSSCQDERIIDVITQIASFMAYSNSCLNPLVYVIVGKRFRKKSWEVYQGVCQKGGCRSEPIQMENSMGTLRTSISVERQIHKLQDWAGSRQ

[40] = biological target: Substance-K receptor (Homo sapiens) (UniProt P21452); assay: Binding affinity to human NK2 receptor at 1 uM
Substance-K receptor (Homo sapiens), sequence (P21452 whole entry): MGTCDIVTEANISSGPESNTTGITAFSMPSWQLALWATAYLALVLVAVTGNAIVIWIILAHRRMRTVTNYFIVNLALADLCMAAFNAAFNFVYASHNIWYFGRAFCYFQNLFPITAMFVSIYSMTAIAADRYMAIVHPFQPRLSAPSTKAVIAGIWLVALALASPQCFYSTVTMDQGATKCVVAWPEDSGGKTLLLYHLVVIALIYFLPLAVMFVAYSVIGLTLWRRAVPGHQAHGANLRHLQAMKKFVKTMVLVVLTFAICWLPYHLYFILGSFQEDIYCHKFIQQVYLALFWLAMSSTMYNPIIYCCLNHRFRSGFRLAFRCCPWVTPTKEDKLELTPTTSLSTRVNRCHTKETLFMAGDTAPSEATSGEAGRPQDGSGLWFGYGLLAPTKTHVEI

[41] = Dissociation constant, pKa of the compound; type: physicochemical
Rattus norvegicus [42] = assay: Antihyperalgesic activity in complete Freund's adjuvant rat model of inflammatory pain assessed as reversal of hypersensitivity at 0.1 mg/kg, po administered as single dose measured after 1 hr; type: functional, organism-based; parameters: dose 0.1 mg/kg
[43] = biological target: Adenosine receptor A2a (Homo sapiens) (UniProt P29274); assay: Binding affinity to human adenosine A2A receptor at 1 uM
[44] = Intrinsic clearance in human liver microsomes; type: ADME, Microsome
[45] = biological target: Histamine H2 receptor (Homo sapiens) (UniProt P25021); assay: Binding affinity to human histamine H2 receptor at 1 uM

In the case of `Cn1ccc2c(Nc3cccc(Cl)c3)ncc(C(=O)N3CCOCC3)c21`, the Activity [1] is reported as < 10%, the concentration at 0.8 h [2] is reported as 1.1 µM and the concentration at 1 h [3] is reported as 8.6 µM. For the same compound, the Activity [4] was < 10%, the Activity [5] was < 10% and the EC50 (Cannabinoid receptor 2 [6]) was 0.005 µM. The Activity [7] was 15%, the concentration at 3 h [8] was 10 µM and the Activity [9] was < 10%. For the same compound, the Activity [10] was 11%, the EC50 (Cannabinoid receptor 2 [11]) was 0.008 µM and the Activity [12] was < 10%. For the same compound, the Activity [13] was < 10%, the EC50 (Cannabinoid receptor 1 [14]) was 6.3 µM and the CLint scaled [15] was < 0.8 mL/min/kg. The Activity [16] was < 10%, the concentration at 5 h [17] was 12.3 µM and the Activity [18] was < 10%. For the same compound, the Activity (Rattus norvegicus [19]) was “Active”, the Activity (Rattus norvegicus [20]) was “Non-toxic” and the concentration at 1 h [21] was 0.097 µM. The IC50 (Cytochrome P450 2C9) was 42 µM, the Ratio EC50 (Homo sapiens) was 1200 and the Activity [22] was 24%. The Activity [23] was < 10%, the Activity [24] was < 10% and the ED50 (Rattus norvegicus [25]) was 0.02 mg/kg. The Activity [26] was < 10%, the minimal effective dose (Rattus norvegicus [27]) was 3 mg/kg and the Kp at 1 h [28] was 1. The Efficacy (Cannabinoid receptor 2 [29]) was 91%, the Activity [30] was < 10% and the Activity [31] was < 10%. For the same compound, the Activity (Rattus norvegicus [32]) was “Active”, the IC50 (Cytochrome P450 3A4) was 24 µM and the Ratio [33] was 2.9. For the same compound, the Kp at 12 h [34] was 1.04, the Activity [35] was < 10% and the Efficacy (Cannabinoid receptor 1 [36]) was 88%. The Activity [37] was < 10%, the Activity [38] was 15% and the Activity [39] was < 10%. For the same compound, the Activity [40] was < 10%, the pKa [41] was 6.1 and the Activity (Rattus norvegicus [42]) was “Active”. For the same compound, the Activity [43] was < 10%, the CLint scaled [44] was < 0.6 mL/min/kg and the Activity [45] was < 10%.
